Consider eight compounds from PubChem BioAssay (NCI).

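All cell lines were grown in 96-well plates and treated with compound for 48 hours. Abbreviation: GI50, concentration required for 50% inhibition of growth. TGI is the concentration that stops growth completely.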

Some test systems named below: A498 renal; A549 NSCLC; CAKI-1 renal; HOP-92 NSCLC; NCI-H23 lung; OVCAR-5 ovarian; SK-MEL-5 melanoma; SN12C renal; TK-10 renal; UACC-62 melanoma.
Holding throughout (assay): growth of human tumour cells (NCI), 48 h

Consider `C=C=C(C(=O)OC)S(=O)c1ccc([N+](=O)[O-])cc1[N+](=O)[O-]` (stereo not given), for which the TGI in the test on A498 renal is above 100 µM; with A549 NSCLC it was above 100 µM; in the test with CAKI-1 renal, 63.1 µM; with HOP-92 NSCLC it was 66.7 µM; with NCI-H23 lung it was above 87.3 µM; in the test with OVCAR-5 ovarian, above 100 µM. Also, the TGI with SK-MEL-5 melanoma is above 100 µM; in the test with SN12C renal, 49 µM; in the test on TK-10 renal, above 85.7 µM; in the test on UACC-62 melanoma it was above 71.4 µM.

Regarding `COc1ccc(-c2cn[nH]c2-c2cc(OC)c3c(c2)OCCO3)cc1`, the GI50 with A498 renal was 0.0298 µM; in the test with A549 NSCLC, 0.102 µM; in the test on CAKI-1 renal, 0.143 µM; in the test on HOP-92 NSCLC, 1.04 µM; with NCI-H23 lung it was 0.599 µM; with OVCAR-5 ovarian it was 0.683 µM. For the same compound, the GI50 with SK-MEL-5 melanoma was 0.0717 µM; in the test with SN12C renal, 1.28 µM; in the test on TK-10 renal it was 0.457 µM; with UACC-62 melanoma, 0.0758 µM. Besides, the TGI in the test with A498 renal is 0.419 µM; in the test with A549 NSCLC, 46 µM; in the test on CAKI-1 renal, 58.4 µM; with HOP-92 NSCLC, 28.1 µM; with NCI-H23 lung it was above 100 µM; in the test on OVCAR-5 ovarian, above 100 µM. Also, the TGI amounted to 8.08 µM with SK-MEL-5 melanoma, 73.7 µM with SN12C renal, 48.4 µM with TK-10 renal and 17.6 µM in the test on UACC-62 melanoma.

With `O=C1c2ccccc2-n2c1nc1ccccc1c2=O`, the TGI was 59.8 µM in the test on A498 renal; 17 µM in the test with A549 NSCLC; 42.3 µM with CAKI-1 renal; above 100 µM in the test with HOP-92 NSCLC; 33.8 µM with NCI-H23 lung; 29.9 µM in the test with OVCAR-5 ovarian. Further, the TGI is 26 µM with SK-MEL-5 melanoma, above 68.8 µM in the test with SN12C renal, above 100 µM in the test on TK-10 renal and 14.5 µM with UACC-62 melanoma.

Consider `COC(=O)c1c(-c2ccccc2)sc(-c2cccc3ccccc23)c1C(=O)OC`, for which the TGI in the test with A498 renal, in the test on A549 NSCLC, in the test on CAKI-1 renal, with HOP-92 NSCLC, with NCI-H23 lung and in the test with OVCAR-5 ovarian was above 100 µM each time. For the same compound, the TGI in the test on SK-MEL-5 melanoma, in the test on SN12C renal, in the test with TK-10 renal and in the test on UACC-62 melanoma was above 100 µM each time.

Turning to `CCCCCCN(CCCCCC)CC(O)c1ccc2c3c(cccc13)CC2` (stereo not given), the GI50 in the test with A498 renal is 2.31 µM; with A549 NSCLC, 10.4 µM; in the test on CAKI-1 renal, 1.96 µM; in the test with HOP-92 NSCLC, 2.16 µM; in the test with NCI-H23 lung, 3.7 µM; with OVCAR-5 ovarian, 10.8 µM. For the same compound, the GI50 with SK-MEL-5 melanoma is 4.74 µM; with SN12C renal, 7.04 µM; in the test with TK-10 renal, 10.7 µM; in the test on UACC-62 melanoma it was 4.4 µM. Also, the TGI came out at 12 µM in the test on A498 renal; 24 µM in the test on A549 NSCLC; 9.35 µM with CAKI-1 renal; 9.27 µM with HOP-92 NSCLC; 18.1 µM in the test on NCI-H23 lung; 23.9 µM in the test with OVCAR-5 ovarian. Also, the TGI was determined as 17.9 µM with SK-MEL-5 melanoma, 22 µM in the test on SN12C renal, 23.2 µM in the test on TK-10 renal and 17.5 µM with UACC-62 melanoma.

Regarding `COC(=O)CCC1=C(C)/C(=C/c2[nH]c(-c3ccc[nH]3)cc2OC)N=C1C`, the GI50 in the test on A498 renal is 4.71 µM; in the test on A549 NSCLC, 0.565 µM; in the test on CAKI-1 renal, 0.346 µM; in the test with HOP-92 NSCLC, 0.191 µM; with NCI-H23 lung it was 0.587 µM; in the test on OVCAR-5 ovarian it was 1.04 µM. Also, the GI50 with SK-MEL-5 melanoma was 0.0965 µM; in the test with SN12C renal, 2.35 µM; in the test on TK-10 renal it was 2.34 µM; in the test on UACC-62 melanoma it was 0.295 µM. In addition, the TGI with A498 renal is 18.5 µM; with A549 NSCLC, 6.32 µM; with CAKI-1 renal it was 3.15 µM; in the test on HOP-92 NSCLC, 0.571 µM; in the test on NCI-H23 lung, 3.84 µM; in the test with OVCAR-5 ovarian, 12.9 µM. Besides, the TGI in the test on SK-MEL-5 melanoma was 0.248 µM; in the test on SN12C renal, 18.1 µM; with TK-10 renal it was 9.22 µM; in the test with UACC-62 melanoma, 0.894 µM.

On to `O=C(O)CSc1ncccc1[N+](=O)[O-]`, for which the TGI in the test with A498 renal, in the test on A549 NSCLC, with CAKI-1 renal, in the test with HOP-92 NSCLC, in the test on NCI-H23 lung and in the test on OVCAR-5 ovarian was above 100 µM in each case. Also, the TGI in the test with SK-MEL-5 melanoma, with SN12C renal, in the test with TK-10 renal and with UACC-62 melanoma was above 100 µM in each case.

Consider `CCN(CC)c1ccc2c(c1)Nc1cc(=C(C#N)C#N)c3ccccc3c1=N2`, for which the TGI with A498 renal, in the test on A549 NSCLC, in the test with CAKI-1 renal, in the test on HOP-92 NSCLC, with NCI-H23 lung and in the test on OVCAR-5 ovarian was above 100 µM in each case. Moreover, the TGI in the test on SK-MEL-5 melanoma, in the test with SN12C renal, in the test on TK-10 renal and in the test with UACC-62 melanoma was above 100 µM throughout.
